Assay results as given in PMC9939733 (The Journal of Biological Chemistry, 2023).
Where a chain is given by its changes, count along the chain named. Where “and” joins values, the source holds several entries; their conditions need not be identical. Equal entries are not always repeated.

Tests used:
Assay type in all cases: biochemical
R140Q IDH2 [1] = biological target: T1, R140Q IDH2 (Homo sapiens, UniProt P48735, R140Q); assay: Absorbance assay (NADPH consumption), substrate turnover in the absence of 2OG
T1 construct: made in house; host or cells: Sf21 insect cells (cell pellets prepared at Evotec)
T1 sequence (P48735 40-452 R140Q): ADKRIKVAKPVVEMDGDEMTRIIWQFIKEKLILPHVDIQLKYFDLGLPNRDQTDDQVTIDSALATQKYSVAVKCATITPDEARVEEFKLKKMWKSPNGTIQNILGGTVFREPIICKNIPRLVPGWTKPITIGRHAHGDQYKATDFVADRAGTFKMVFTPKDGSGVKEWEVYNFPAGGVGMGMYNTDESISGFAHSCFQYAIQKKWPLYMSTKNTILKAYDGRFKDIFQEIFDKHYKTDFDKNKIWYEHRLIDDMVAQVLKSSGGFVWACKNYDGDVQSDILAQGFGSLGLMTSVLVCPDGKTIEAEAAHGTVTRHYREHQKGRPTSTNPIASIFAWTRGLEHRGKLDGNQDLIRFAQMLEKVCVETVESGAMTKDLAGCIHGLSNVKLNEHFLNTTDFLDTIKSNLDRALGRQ
Procedure: (§1) Compounds were dispensed using a CyBio SDW-CW CyBi-Well Simultaneous Pipettor and assay started using a ThermoFisher Multidrop Combi reagent dispenser.
(§2) Reactions were performed as technical quadruplicates.

R172K IDH2 [2] = biological target: T2, R172K IDH2 (Homo sapiens, UniProt P48735, R172K); assay: as above
T2 construct: made in house; host or cells: Sf21 insect cells (cell pellets prepared at Evotec)
T2 sequence (P48735 40-452 R172K): T1 sequence (P48735 40-452 R140Q) with Q101R, R133K
Procedure: as §1, §2

R140Q IDH2 [3] = biological target: T1, R140Q IDH2; assay: Absorbance assay, variant activity in the presence of equimolar 2OG (inhibition screen)
Procedure: as §1, §2

R172K IDH2 [4] = biological target: T2, R172K IDH2; assay: as above
Procedure: as §1, §2

WT IDH1 [5] = biological target: T3, WT IDH1 (Homo sapiens, UniProt O75874); assay: Absorbance assay, WT activity in the presence of equimolar DL-isocitrate (inhibition)
T3 construct: made in house; host or cells: Escherichia coli BL21(DE3) pLyS
T3 sequence (O75874 whole entry): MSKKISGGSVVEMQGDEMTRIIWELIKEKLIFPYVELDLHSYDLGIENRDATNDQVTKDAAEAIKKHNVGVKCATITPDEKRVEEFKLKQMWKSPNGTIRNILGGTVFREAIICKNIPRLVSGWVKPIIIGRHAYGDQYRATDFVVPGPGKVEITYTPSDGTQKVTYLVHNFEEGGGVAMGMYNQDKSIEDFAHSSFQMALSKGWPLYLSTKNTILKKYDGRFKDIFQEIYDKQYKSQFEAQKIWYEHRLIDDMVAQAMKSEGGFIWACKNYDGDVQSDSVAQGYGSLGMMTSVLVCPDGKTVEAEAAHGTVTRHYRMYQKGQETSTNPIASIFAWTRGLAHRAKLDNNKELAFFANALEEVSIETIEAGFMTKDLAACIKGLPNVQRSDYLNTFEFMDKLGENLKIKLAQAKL
Procedure: as §1, §2

WT IDH2 [6] = biological target: T4, WT IDH2 (Homo sapiens, UniProt P48735); assay: as above
T4 construct: made in house; host or cells: Sf21 insect cells (cell pellets prepared at Evotec)
T4 sequence (P48735 40-452): T1 sequence (P48735 40-452 R140Q) with Q101R
Procedure: as §1, §2

WT IDH1 [7] = biological target: T3, WT IDH1; assay: Absorbance assay, substrate activity in the absence of DL-isocitrate
Procedure: as §1, §2

WT IDH2 [8] = biological target: T4, WT IDH2; assay: as above
Procedure: as §1, §2

R132H IDH1 [9] = biological target: T5, R132H IDH1 (Homo sapiens, UniProt O75874, R132H); assay: Absorbance assay (NADPH consumption), substrate turnover in the absence of 2OG; design: made in house; host or cells: Escherichia coli BL21(DE3) pLyS
T5 sequence (O75874 whole entry R132H): as the sequence (O75874 whole entry) above, with R132H counted along it
Procedure: as §1, §2

R132H IDH1 [10] = biological target: T5, R132H IDH1; assay: Absorbance assay, variant activity in the presence of equimolar 2OG (inhibition screen); design: made in house; host or cells: Escherichia coli BL21(DE3) pLyS
Procedure: as §1, §2

[11] = no 2OG, 6.0 mM test compound, 0.03 μM R140Q IDH2, 50 μM NADPH, 2OG = 100
[12] = no 2OG, 1.0 mM test compound, 0.03 μM R172K IDH2, 50 μM NADPH, 2OG = 100
[13] = 6.0 mM 2OG and 6.0 mM test compound, 0.03 μM R140Q IDH2, 50 μM NADPH
[14] = 1.0 mM 2OG and 1.0 mM test compound, 0.03 μM R172K IDH2, 50 μM NADPH
[15] = […] isocitrate and […] test compound, 75 μM NADP+, 2.0 nM WT IDH1
[16] = […] isocitrate and […] test compound, 75 μM NADP+, 2.0 nM WT IDH2
[17] = no DL-isocitrate, […] test compound, 75 μM NADP+, 2.0 nM WT IDH1, compared to DL-isocitrate
[18] = no DL-isocitrate, […] test compound, 75 μM NADP+, 2.0 nM WT IDH2, compared to DL-isocitrate
[19] = no 2OG, […] test compound, 0.03 μM R132H IDH1, 50 μM NADPH, 2OG = 100
[20] = […] 2OG and […] test compound, 0.03 μM R132H IDH1, 50 μM NADPH

activity [%] (%-substrate conversion after 20 min incubation) (R140Q IDH2 [1]; [11])	activity [%] (%-substrate conversion after 20 min incubation) (R172K IDH2 [2]; [12])	activity [%] (%-substrate conversion after 20 min incubation) (R140Q IDH2 [3]; [13])	activity [%] (%-substrate conversion after 20 min incubation) (R172K IDH2 [4]; [14])	activity [%] (%-substrate conversion after 20 min incubation) (WT IDH1 [5]; [15])	activity [%] (%-substrate conversion after 20 min incubation) (WT IDH2 [6]; [16])	activity [%] (%-substrate conversion after 20 min incubation) (WT IDH1 [7]; [17])	activity [%] (%-substrate conversion after 20 min incubation) (WT IDH2 [8]; [18])	activity [%] (%-substrate conversion after 20 min incubation) (R132H IDH1 [9]; [19])	activity [%] (%-substrate conversion after 20 min incubation) (R132H IDH1 [10]; [20])	SMILES	activity [%] (%-substrate conversion after 20 min incubation) (R140Q IDH2 [1])	activity [%] (%-substrate conversion after 20 min incubation) (R172K IDH2 [2])	activity [%] (%-substrate conversion after 20 min incubation) (R140Q IDH2 [3])	activity [%] (%-substrate conversion after 20 min incubation) (R172K IDH2 [4])	activity [%] (%-substrate conversion after 20 min incubation) (WT IDH1 [5])	activity [%] (%-substrate conversion after 20 min incubation) (WT IDH2 [6])	activity [%] (%-substrate conversion after 20 min incubation) (WT IDH1 [7])	activity [%] (%-substrate conversion after 20 min incubation) (WT IDH2 [8])	activity [%] (%-substrate conversion after 20 min incubation) (R132H IDH1 [9])	activity [%] (%-substrate conversion after 20 min incubation) (R132H IDH1 [10])
< 10	< 10	115 ± 12	102 ± 9	103 ± 2	99 ± 3	< 10	< 10	< 10	104 ± 3	CC(CC(=O)O)C(=O)O (racemic) [DL-2-methylsuccinic acid]	–	–	–	–	–	–	–	–	–	–
< 10	< 10	115 ± 9	100 ± 8	105 ± 6	95 ± 5	< 10	< 10	< 10	104 ± 8	CC(O)C(=O)O (racemic) [DL-lactic acid]	–	–	–	–	–	–	–	–	–	–
< 10	< 10	82 ± 4	104 ± 1	108 ± 4	101 ± 5	–	–	< 10	104 ± 7	N[C@@H](CCCC(=O)O)C(=O)O [L-2-aminoadipic acid]	–	–	–	–	–	–	–	–	–	–
< 10	< 10	106 ± 6	104 ± 2	102 ± 2	102 ± 4	–	–	< 10	99 ± 2	CC(C)CC(=O)C(=O)O [α-ketoisocaproic acid]	–	–	–	–	–	–	–	–	–	–
< 10	< 10	102 ± 5	94 ± 5	105 ± 4	98 ± 3	–	–	< 10	104 ± 2	CC[C@H](C)C(=O)C(=O)O [α-ketoisoleucine]	–	–	–	–	–	–	–	–	–	–

More lines, now with the values behind:

SMILES	activity [%] (%-substrate conversion after 20 min incubation) (R140Q IDH2 [1]; [11])	activity [%] (%-substrate conversion after 20 min incubation) (R172K IDH2 [2]; [12])	activity [%] (%-substrate conversion after 20 min incubation) (R140Q IDH2 [3]; [13])	activity [%] (%-substrate conversion after 20 min incubation) (R172K IDH2 [4]; [14])	activity [%] (%-substrate conversion after 20 min incubation) (WT IDH1 [5]; [15])	activity [%] (%-substrate conversion after 20 min incubation) (WT IDH2 [6]; [16])	activity [%] (%-substrate conversion after 20 min incubation) (WT IDH1 [7]; [17])	activity [%] (%-substrate conversion after 20 min incubation) (WT IDH2 [8]; [18])	activity [%] (%-substrate conversion after 20 min incubation) (R132H IDH1 [9]; [19])	activity [%] (%-substrate conversion after 20 min incubation) (R132H IDH1 [10]; [20])	activity [%] (%-substrate conversion after 20 min incubation) (R140Q IDH2 [1])	activity [%] (%-substrate conversion after 20 min incubation) (R172K IDH2 [2])	activity [%] (%-substrate conversion after 20 min incubation) (R140Q IDH2 [3])	activity [%] (%-substrate conversion after 20 min incubation) (R172K IDH2 [4])	activity [%] (%-substrate conversion after 20 min incubation) (WT IDH1 [5])	activity [%] (%-substrate conversion after 20 min incubation) (WT IDH2 [6])	activity [%] (%-substrate conversion after 20 min incubation) (WT IDH1 [7])	activity [%] (%-substrate conversion after 20 min incubation) (WT IDH2 [8])	activity [%] (%-substrate conversion after 20 min incubation) (R132H IDH1 [9])	activity [%] (%-substrate conversion after 20 min incubation) (R132H IDH1 [10])
O=C(O)CC(Cc1ccccc1)C(=O)O (racemic) [DL-benzylsuccinic acid]	< 10	< 10	123 ± 5	98 ± 3	103 ± 4	101 ± 3	< 10	< 10	< 10	93 ± 3	–	–	–	–	–	–	–	–	–	–
O=C1CC(C(=O)O)C(C(=O)O)O1 (racemic) [DL-isocitric acid lactone]	–	–	–	–	–	–	–	–	–	–	< 10	< 10	118 ± 18	95 ± 3	105 ± 2	106 ± 2	~10% and 12 ± 4%	~10% and 11 ± 1%	< 10	99 ± 2
CSCCC(=O)C(=O)O [4-methylthio-2-oxobutyric acid]	< 10	< 10	99 ± 5	96 ± 1	102 ± 2	98 ± 3	–	–	< 10	97 ± 1	–	–	–	–	–	–	–	–	–	–
O=C(O)CC(O)(CC(=O)O)C(=O)O [DL-citric acid]	–	–	–	–	–	–	–	–	–	–	< 10	< 10	122 ± 14	94 ± 4	103 ± 3	101 ± 3	–	–	< 10	115 ± 25
COC(=O)CCC(=O)C(=O)OC [dimethyl 2-oxoglutaric acid]	< 10	< 10	124 ± 12	100 ± 9	98 ± 1	97 ± 2	–	–	< 10	95 ± 3	–	–	–	–	–	–	–	–	–	–
O=C(O)C(=O)C(=O)O [ketomalonic acid]	< 10	< 10	–	85 ± 12	102 ± 4	100 ± 2	< 10	< 10	< 10	79 ± 1	–	–	–	–	–	–	–	–	–	–
